# From patent publication US6555518B1, “Gemcitabine as an immunosuppressive pharmaceutical agent” (Eli Lilly and Company, priority 1998, dated 2003)
# Legend:
# CD4+ lymphocytes = details: daily x5 schedule, low malignant lymphomas; cited from earlier work
# [1] = system: CD4+ and CD8+ lymphocyte subsets; details: after repeated applications; cited from earlier work
# [2] = system: PHA-activated T-lymphocytes (peripheral blood mononuclear cells); test: T-lymphocyte colony formation (lymphocyte colony-growth assay, microagar culture); assay type: cell-based; details: 168 h, PBMC, colonies scored after 7 days, read-out: 50% inhibition of PHA-induced lymphocyte proliferation (colony formation)
# Method: dFdC is commercially available. […] Aye, Blood 58, 1043 (1981). Therefore, peripheral blood mononuclear cells (PBMC) were cultured with phytohemagglutinin (PHA) and varying concentrations of dFdC in the microagar culture system described by Petzer et al., Blood 78, 2583 (1991). PBMCs were suspended in Iscove s medium containing 20% fetal calf serum and 0.3% agar. Subsequently 250 μl aliquots of this suspension containing 2×10^5 PBMCs were plated in multiwell tissue culture plates. The agar was allowed to solidify at room temperature and then was overlayered with 250 μl medium containing 0.5% PHA and 0.5% 2-mercaptoethanol (1×10^−4 mol/l final concentrations). The cultures were incubated at 37° C. in a fully humidified atmosphere containing 5% CO2 and colonies were scored using an inverted microscope after 7 days of incubation.
# [3] = daily x5 schedule, 9 mg/m^2 dose level; cited from earlier work
# [4] = i.v. over 30 minutes once per week for 3 weeks followed by a week's rest; cited from earlier work
# heart allografts = test: Rat heart-transplantation model (heterotopic heart allograft); assay type: in vivo; parameters: Leucopenia: dose or concentration left out as unconfirmed; details: for Graft rejection: histology graded by ISHT criteria
# Method: Inbred male LEWIS (LEW) rats and Brown Norway (BN) rats weighing 200-270 g were obtained from “Zentralinstitut fur Versuchstierzucht”, Hannover, Germany. Heterotopic heart transplants were performed using microsurgical techniques as described by Schmid et al., Eur. Surg. […] Postoperatively, all animals were given water and standard rat diet ad libitum.
# dFdC was administered subcutaneously once daily for 50 consecutive days beginning immediately after surgery. […] The control group (n=8) received no treatment.
# The beating activity of heart allografts was determined by daily palpation. Animals were sacrificed by an overdose of ether whenever cardiac allografts stopped beating and hearts and all vital organs were excised for histology. Multiple sections of the left ventricle of the transplant and of every native organ were fixed in 4% buffered formalin. Paraffin-embedded probes were cut into 5-jim-thick sections and stained with hematoxylin and eosin. Slides were assessed by a pathologist blinded to the study and rejection was graded according to the ISHT criteria.
smiles,measurement,setting,value
Nc1nc(Cl)nc2c1ncn2[C@H]1C[C@H](O)[C@@H](CO)O1 [2-chlorodeoxyadenosine],Duration of severe suppression of CD4+ lymphocytes,CD4+ lymphocytes,more than 12 months
"Nc1ccn([C@@H]2O[C@H](CO)[C@@H](O)C2(F)F)c(=O)n1 [dFdC, 2′-deoxy-2′,2′-difluorocytidine]",Reduction of CD4+ and CD8+ lymphocyte subsets,[1],no significant reduction
same,IC50,[2],3.25 ± 0.9 nM
same,Nonhaematologic toxicity,[3],significant amount of nonhaematologic toxicity including sporadic fever and severe hypertension
same,"Myelosuppression with severe infections (WHO grade III/IV), share of patients",[4],less than 1%
same,Allograft survival,heart allografts; 25 μg/kg/day s.c. once daily for 50 days,7.3 days
same,Graft rejection,heart allografts; 25 μg/kg/day,Grade IV
same,Allograft survival,heart allografts; 50 μg/kg/day s.c. once daily for 50 days,9.2 days
same,Graft rejection,heart allografts; 50 μg/kg/day,Grade IV
same,Allograft survival,heart allografts; 75 μg/kg/day s.c. once daily for 50 days,15.7 days
same,Graft rejection,heart allografts; 75 μg/kg/day,Grade IV
same,Allograft survival,heart allografts; 100 μg/kg/day s.c. once daily for 50 days,152.8 days
same,Graft rejection,heart allografts; 100 μg/kg/day,Grade IV
same,Allograft survival,heart allografts; 125 μg/kg/day s.c. once daily for 50 days,144.2 days
same,Graft rejection,heart allografts; 125 μg/kg/day,Grade IV
same,Allograft survival,heart allografts; 150 μg/kg/day s.c. once daily for 50 days,41.5 days
same,Graft rejection,heart allografts; 150 μg/kg/day,None
same,Allograft survival,heart allografts; 300 μg/kg/day s.c. once daily for 50 days,16.0 days
same,Graft rejection,heart allografts; 300 μg/kg/day,None
same,Allograft survival,heart allografts; 600 μg/kg/day s.c. once daily for 50 days,10.5 days
same,Graft rejection,heart allografts; 600 μg/kg/day,None
same,Allograft survival,heart allografts; 6000 μg/kg/day s.c. once daily for 50 days,4.0 days
same,Graft rejection,heart allografts; 6000 μg/kg/day,None
same,Graft survival compared to untreated controls,heart allografts; all animals given between 75 and 600 μg/kg BW,prolonged
same,Leucopenia,heart allografts; all animals of all dose groups,Dose-dependent leucopenia occurred in all animals of all groups
same,Reversibility of leucopenia,heart allografts; animals given less than 150 μg/kg,reversible
same,Toxicity at high dose,heart allografts; more than 125 μg/kg BW,overimmunosuppression and irreversible myelotoxicity
